In data set [1] the test system is DENV2. Description: DENV2-induced cytopathic effect (CPE) reduction screening in Vero E6 cells. The class given is cell-based, Dengue virus type 2. The conditions noted are these: Dengue virus, Vero C1008; 10 μM compound, DENV2, Vero E6 cells, 96 h; read-out: CPE Reduction at 10 μM. As for the experimental part:
(§1) In the antiviral screening assay, each tested GL conjugate at 10 μM was used to survey the anti-DENV activity in Vero E6 cells using cytopathic effect (CPE) and infectivity reduction assays as described in our prior report. In CPE and infectivity reduction assays, Vero E6 cells were infected by DENV2 at an MOI of 0.005 and simultaneously treated 10 μM of indicated GL conjugate for 96 h, and then photographed by microscope for examining the levels of DENV2-induced CPE in infected cells treated with or without GL conjugate. Meanwhile, the cells were further performed using immunofluorescence assay (IFA) with anti-DENV NS4B antibodies (GeneTex, Inc., Hsinchu, Taiwan) and anti-rabbit IgG antibodies conjugated with AF555 (ThermoFisher, Waltham, MA, USA) plus DAPI (4′,6-diamidino-2-phenylindole) nuclear staining. Finally, the DENV-2 infectivity was measured according to the ratio of DENV NS4B-positive cells to DAPI-stained cells in the well of mock-treated or treated cells, as described in [45, 59, 60].

On the set-up of data set [2]: method as in earlier work. The conditions noted are these: mammals; cited from earlier work.
Data set [3] can be described thus: MTT cytotoxicity assay in Vero E6 cells. The class given is cell-based. Conditions: African green monkey. On the procedure:
Vero E6 cells and A549 cells (5 × 10^3 cells/well) were treated with the serial dilution of GL conjugates at 0, 0.1, 10, 20, and 50 μM for examining the in vitro cytotoxicity of tested compounds. After 96-h incubation at 37 °C, the cells were incubated with MTT (3-(4,5-Dimethylthiazol-2-yl)-2,5-Diphenyltetrazolium Bromide) solution for another 4 h incubation, mixed with DMSO for 15 min after the removal of media, and then measured the absorbance at 570 nm. The viability (%) of treated cells was quantified according to the reduced ability of MTT. Finally, the concentration for reducing 50% cell viability (the 50% cytotoxic concentration, CC50) was determined by regression analysis of the concentration–response survival curve.

Data set [4] deals with DENV2. Description: DENV2 infectivity inhibition (anti-NS4B immunofluorescence) in Vero E6 cells. The class given is cell-based, Dengue virus type 2.
Description: as §1, with “In the antiviral screening assay, each tested GL conjugate at 10 μM was used to survey the anti-DENV activity in Vero E6 cells using cytopathic effect (CPE) and infectivity reduction assays as described in our prior report.” left out, “[…],” for “Vero E6 cells were infected by DENV2 at an MOI of 0.005 and simultaneously treated 10 μM of indicated GL conjugate for 96 h,”

We go through one compound from article PMC9499324, “Glycyrrhizic Acid Derivatives Bearing Amino Acid Residues in the Carbohydrate Part as Dengue Virus E Protein Inhibitors: Synthesis and Antiviral Activity” (International Journal of Molecular Sciences, 2022).

Bounds are passed on as bounds.

Take `CC1(C)[C@@H](O[C@H]2O[C@H](C(=O)O)[C@@H](O)[C@H](O)[C@H]2O[C@@H]2O[C@H](C(=O)O)[C@@H](O)[C@H](O)[C@H]2O)CC[C@]2(C)[C@H]3C(=O)C=C4[C@@H]5C[C@@](C)(C(=O)O)CC[C@]5(C)CC[C@@]4(C)[C@]3(C)CC[C@@H]12` [Compound 1, Glycyrrhizic acid]: the inhibition at 10 µM in the data set with DENV2 [1] is 50 to 75%; in the data set on DENV2 [4] (Dengue virus, Vero C1008, 10 μM compound, DENV2, Vero E6 cells, 96 h, read-out: Inhibition (%) at 10 μM (reduction of NS4B-positive cells)), 70.5%. The LD50 in data set [2] is reported as 5000 mg/kg. The compound further yielded a CC50 at 96 h in data set [3] above 100 µM. In the data set on DENV2 [4] (Dengue virus, DENV2, Vero C1008, Vero E6 cells, read-out: Inhibition of DENV2 Infectivity (IC50)), the IC50 came to 8.1 ± 0.21 µM. Further, in the data set on DENV2 [4] (Vero E6 cells, DENV2), the “Selectivity Index (CC50/ IC50)” value is above 12.3.
